Patent publication US20180303101A1, “METHOD OF IMPROVING GRASS QUALITY” (priority 2004, published 2018)

Columns and labels:
Assay type in all cases: in vivo
[1] = system: Penncross creeping bentgrass; test: Final root and canopy biomass at high temperature treatment (Example 1); conditions: plants with and without pretreatment, end of experiment
Description: (§1) The following test methods were used to compare the effectiveness of a phthalocyanine composition according to the invention with known compositions. The following compositions were used in the experiments: Pigment Green 7 obtained from Sun Chemical Corporation as the water-dispersible product SUN T-64-1660 (containing 45 to 55 wt. % of Pigment Green 7) was used alone. A mixture of Pigment Green 7 and fosetyl-al was used as the commercially available product Chipco® Signature™ fungicide from Bayer Environmental Science, Montvale, N.J. The compound fosetyl-al was used as Chipco® Aliette® WDG fungicide available from Bayer Environmental Science, Montvale N.J.
(§2) Seeds of “Penncross” creeping bentgrass were sown in polyvinyl chloride (PVC) tubes (10 cm in diameter and 20 cm in length) filled with coarse sand. Plants were kept in a growth chamber for 90 days before treatment stated to allow root and canopy establishment. The daily temperature in the growth chamber was 20/16° C., the photosynthetic photon flux density was 400 μmol m−2 s−1, and the photoperiod was 12 hours/day. Turf was mowed twice weekly at 4 mm with scissors, irrigated every other day until there was free drainage from the bottom of tubes, and fertilized weekly with 40 ml full-strength Hoagland's nutrient solution (Hoagland and Arnon, 1950). Insecticide was applied to kill whitefly when necessary. […]

[2] = system: creeping bentgrass (variety Penncross) turf; test: Bentgrass color rating after foliar spray (Example 3); conditions: 6 weeks after treatment; Aliette 4 oz, Signature 4 and 8 oz, Pigment 6.8 and 13.6 g per 1000 sq. ft.; analysis of variance
Description: Fosetyl-al (in the form of Aliette brand fungicide), fosetyl-al plus Pigment Green 7 (in the form of Signature brand Aliette fungicide), and Pigment Green 7 were separately suspended in water and applied as a foliar spray to creeping bentgrass (variety Penncross) turf with a pressurized sprayer at a spray volume of 1.37 gallons of water per 1000 sq. ft. (ca. 560 l/ha).
Treatments were applied at the following rates: • Aliette 4 oz/1000 sq. ft. (ca. 1.3 mL/m2) • Signature 4 oz/1000 sq. ft. (ca. 1.3 mL/m2) • Signature 8 oz/1000 sq. ft. (ca. 2.5 mL/m2) • Pigment 6.8 g/1000 sq. ft. (0.73 kg/ha) • Pigment 13.6 g/1000 sq. ft. (1.5 kg/ha)

[3] = system: creeping bentgrass (variety Penncross) turf; test: Bentgrass color rating after foliar spray (Example 4); conditions: 6 weeks after treatment; iprodione 4 oz/1000 sq. ft.; Pigment Green 7 6.8 or 13.6 g/1000 sq. ft. in combination, 13.6 g alone
Description: (§3) Pigment Green 7 was suspended in water and applied as a foliar spray to creeping bentgrass (variety Penncross) turf with a pressurized sprayer at a spray volume of 1.37 gallons of water per 1000 sq. ft. (ca. 560 l/ha). Pigment Green 7 was applied at rates of 6.8, 13.9, and 20.4 grams per 1000 sq. ft. (0.73, 1.5, and 2.2 kg/ha, respectively). Each treatment was replicated 4 times. An untreated plot was included and was also replicated four times. The average color of the bentgrass was visually evaluated at 6 weeks after treatment. Color was evaluated on a qualitative scale from 1-9, with 9 being the highest quality and 1 the lowest quality.
The procedure of Example 2 was repeated using iprodione fungicide (in the form of 26 GT brand iprodione fungicide) at 4 oz/1000 sq. ft. (ca. 1.3 mL/m2), iprodione at 4 oz/1000 sq. ft. (ca. 1.3 mL/m2) plus Pigment Green 7 at 6.8 g/1000 sq. ft. (0.73 kg/ha), iprodione at 4 oz/1000 sq. ft. plus Pigment Green 7 at 13.6 g/1000 sq. ft. (1.5 kg/ha), and Pigment Green 7 at 13.6 g/1000 sq. ft. (1.5 kg/ha). At 6 weeks after treatment, the color ratings were as follows.

[4] = system: Penncross creeping bentgrass; test: Canopy photochemical efficiency (Fv/Fm) at high temperature treatment (Example 1); conditions: plants with and without pretreatment
Description: as §1
(§4) Seeds of “Penncross” creeping bentgrass were sown in polyvinyl chloride (PVC) tubes (10 cm in diameter and 20 cm in length) filled with coarse sand. […]
(§5) Chlorophyll and carotenoids were extracted by soaking 50 mg fresh shoots in 20 ml dimethyl sulfoxide (DMSO) in the dark for 72 hours. Absorbance of each extractant at 663 nm, 645 nm, and 470 nm was used to determine chlorophyll content using the formula of Arnon (1949) and carotenoids content using the formula of Lichtenthaler and Wellburn (1983) Canopy photochemical efficiency was estimated by measuring chlorophyll fluorescence (Fv/Fm) using plant photosynthesis efficiency analyzer (available from ADC Bioscientific Limited, Herts, England).

[5] = system: creeping bentgrass (variety Penncross) turf; test: Bentgrass color rating after foliar spray (Example 2); conditions: 6 weeks after treatment; 6.8, 13.9 and 20.4 grams per 1000 sq. ft.; analysis of variance
Description: as §3

[6] = system: Penncross creeping bentgrass; test: Turf quality visual rating at high temperature treatment (Example 1); conditions: high temperature 35/30° C., biweekly foliar application
Description: as §1, §2

[7] = system: Penncross creeping bentgrass; test: Root mortality at high temperature treatment (Example 1); conditions: plants with or without pretreatment
Description: as §1
(§6) Seeds of “Penncross” creeping bentgrass were sown in polyvinyl chloride (PVC) tubes (10 cm in diameter and 20 cm in length) filled with coarse sand. Plants were kept in a growth chamber for 90 days before treatment stated to allow root and canopy establishment. The daily temperature in the growth chamber was 20/16° C., the photosynthetic photon flux density was 400 μmol m−2 s−1, and the photoperiod was 12 hours/day. […]
Root mortality was measured using the method of Knievel (1973) with modification.
Samples of 0.5 g clean fresh roots were incubated with 10 mL 0.6% 2,3,5-triphenyltetrazolium chloride (in 0.05 M phosphate buffer, pH 7.4) for 24 hours in the dark at 30° C. […] Absorbance at 490 nm was used to determine root mortality.

[8] = system: Penncross creeping bentgrass; test: Canopy net photosynthetic rate at high temperature treatment (Example 1)
Description: as §1, §6
Canopy net photosynthetic rate was measured as described below using a Li-6400 portable photosynthesis system (available from LiCor, Lincoln, NB).

[9] = system: Penncross creeping bentgrass; test: Carotenoids content at high temperature treatment (Example 1); conditions: plants with or without pretreatment
Description: as §1, §4, §5

Pigment Green 7
Canopy biomass (dry weight) [1]: higher with application of Signature fungicide and Pigment Green 7 than with application of Aliette fungicide and water | Roots biomass (dry weight) [1]: higher with application of Signature fungicide and Pigment Green 7 than with application of Aliette fungicide and water | Color rating versus untreated check [2]: significantly different than the untreated check | Color rating versus untreated check [3]: significantly greener than the untreated | Photochemical efficiency (Fv/Fm) [4]: highest | Color rating (visual, scale 1-9) versus untreated check [5]: significantly different than the untreated check | Turf quality (visual, scale 0 to 9) ([6]; plants with pretreatment (sprayed 4 weeks before heat)): highest | Turf quality (visual, scale 0 to 9) ([6]; plants without pretreatment): higher turf quality than applications of Signature fungicide, Aliette fungicide, and water | Root mortality [7]: lower root mortality than application of Signature fungicide and Aliette fungicide | Net photosynthetic rate (Pn) ([8]; plants with pretreatment): higher with application of Pigment Green 7 and Signature fungicide than with application of Aliette fungicide and water | Net photosynthetic rate (Pn) ([8]; plants without pretreatment): highest | Carotenoids content [9]: higher with application of Signature fungicide and Pigment Green 7 than with application of Aliette fungicide and water
